The test system of assay [1] is Plasmodium falciparum. The experiment in a line: Antimalarial activity against […] incubated for 72 hrs by DNA staining based MARK1 growth inhibition assay. It counts as functional, organism-based.
The subject of assay [2] is Plasmodium falciparum. Kind of assay: Antimalarial activity against chloroquine-sensitive Plasmodium falciparum 3D7 incubated for 72 hrs by DNA staining based MAR3D7 growth inhibition assay. It counts as functional, organism-based. The note with it: 3D7, 72 h.
The test system of assay [3] is HepG2. Kind of assay: Cytotoxicity against human HepG2 cells after 72 hrs by […] CellTiterGlo reagent assay. It counts as cell-based. To be noted: HepG2, 72 h. A general note: The colour change of resazurin is a common sign of viable cells or microbes.
For assay [4], the system named is Raji. The experiment in a line: Cytotoxicity against human Raji cells after 72 hrs by […] CellTiterGlo reagent assay. It counts as cell-based.
The test system of assay [5] is BJ. The experiment in a line: Cytotoxicity against human BJ cells after 72 hrs by […] CellTiterGlo reagent assay. The format is cell-based.
For assay [6], the system named is HEK293. The experiment in a line: Cytotoxicity against human HEK293 cells after 72 hrs by […] CellTiterGlo reagent assay. It counts as cell-based. To be noted: HEK293, 72 h.

As usually defined, the EC50 is the concentration at which the effect is half-maximal. Low values mean an effect from little substance, high ones a need for much substance. For `CC(C)N(Cc1cccc(OCCCCCC(=O)O)c1)C(=O)c1ccc(-c2cccc(Br)c2)cc1`, the EC50 in assay [1] was more than 15 µM; in assay [2], more than 15 µM; in assay [3], more than 26 µM; in assay [4] it was more than 26 µM; in assay [5], more than 26 µM; in assay [6], more than 26 µM.

On to `CC(C)N(Cc1cccc(OCCCCCC(=O)O)c1)C(=O)c1ccc(-c2cccc(-c3ccccc3)c2)cc1`, for which the EC50 in assay [1] was more than 15 µM; in assay [2], more than 15 µM; in assay [3] it was more than 26 µM; in assay [4], more than 26 µM; in assay [5], more than 26 µM; in assay [6], more than 26 µM.

With `CC(=O)c1cccc(-c2ccc(C(=O)N(Cc3cccc(OCCCCCC(=O)O)c3)C(C)C)cc2)c1`, the concentration for a half-maximal effect (EC50) in assay [1] was more than 15 µM; in assay [2] it was less than 0.0004 µM; in assay [3], more than 26 µM; in assay [4] it was more than 26 µM; in assay [5], more than 26 µM; in assay [6], more than 26 µM.

Take `CC(C)COc1cccc(-c2ccc(C(=O)N(Cc3cccc(OCCCCCC(=O)O)c3)C(C)C)cc2)c1`: the EC50 is more than 15 µM in assay [1]; more than 15 µM in assay [2]; more than 26 µM in assay [3]; more than 26 µM in assay [4]; more than 26 µM in assay [5]; more than 26 µM in assay [6].

For `CC(C)Oc1cccc(-c2ccc(C(=O)N(Cc3cccc(OCCCCCC(=O)O)c3)C(C)C)cc2)c1`, the EC50 in assay [1] is more than 15 µM; in assay [2], more than 15 µM; in assay [3], more than 26 µM; in assay [4] it was more than 26 µM; in assay [5], more than 26 µM; in assay [6] it was more than 26 µM.

Regarding `CC(C)N(Cc1cccc(OCCCCCC(=O)O)c1)C(=O)c1ccc(-c2cccc(Oc3ccccc3)c2)cc1`, the EC50 in assay [1] was more than 10.4 µM; in assay [2], more than 10.4 µM; in assay [3], more than 18.8 µM; in assay [4], more than 18.8 µM; in assay [5], more than 18.8 µM; in assay [6], more than 18.8 µM.

In the case of `CC(C)N(Cc1cccc(OCCCCCC(=O)O)c1)C(=O)c1ccc(-c2cccc(OCc3ccccc3)c2)cc1`, the EC50 in assay [1] was more than 15 µM; in assay [2], more than 15 µM; in assay [3] it was more than 26 µM; in assay [4] it was more than 26 µM; in assay [5] it was more than 26 µM; in assay [6], more than 26 µM.

Regarding `COc1cccc(-c2ccc(C(=O)N(Cc3cccc(OCCCCCC(=O)O)c3)C(C)C)cc2)c1`, the EC50 in assay [1] was more than 11.6 µM; in assay [2], more than 11.6 µM; in assay [3], more than 26 µM; in assay [4], more than 21 µM; in assay [5] it was more than 21 µM; in assay [6], more than 21 µM.

Regarding `CCOc1cccc(-c2ccc(C(=O)N(Cc3cccc(OCCCCCC(=O)O)c3)C(C)C)cc2)c1`, the EC50 in assay [1] is more than 11.5 µM; in assay [2], more than 11.5 µM; in assay [3], more than 20.9 µM; in assay [4], more than 20.9 µM; in assay [5], more than 20.9 µM; in assay [6], more than 20.9 µM.

With `CC(C)N(Cc1cccc(OCCCCCC(=O)O)c1)C(=O)c1ccc(-c2ccc3c(c2)OCCO3)cc1`, the EC50 was more than 12.1 µM in assay [1]; more than 12.1 µM in assay [2]; more than 21.9 µM in assay [3]; more than 21.9 µM in assay [4]; more than 21.9 µM in assay [5]; more than 21.9 µM in assay [6].

`COc1cc(OC)cc(-c2ccc(C(=O)N(Cc3cccc(OCCCCCC(=O)O)c3)C(C)C)cc2)c1`: the EC50 in assay [1] was more than 15 µM; in assay [2] it was more than 15 µM; in assay [3], more than 26 µM; in assay [4], more than 26 µM; in assay [5], more than 26 µM; in assay [6] it was more than 26 µM.

Consider `CC(C)N(Cc1cccc(OCCCCCC(=O)O)c1)C(=O)c1ccc(-c2cccc(O)c2)cc1`, for which the EC50 in assay [1] is more than 15 µM; in assay [2], more than 15 µM; in assay [3] it was more than 26 µM; in assay [4], more than 26 µM; in assay [5], more than 26 µM; in assay [6] it was more than 26 µM.

Regarding `CC(C)N(Cc1cccc(OCCCCCC(=O)O)c1)C(=O)c1ccc(-c2cccc(OC(F)(F)F)c2)cc1`, the EC50 in assay [1] was more than 15 µM; in assay [2] it was more than 15 µM; in assay [3], more than 26 µM; in assay [4], more than 26 µM; in assay [5], more than 26 µM; in assay [6] it was more than 26 µM.

For the compound `COc1cc(F)cc(-c2ccc(C(=O)N(Cc3cccc(OCCCCCC(=O)O)c3)C(C)C)cc2)c1`, the EC50 in assay [1] was more than 15 µM; in assay [2], more than 15 µM; in assay [3], more than 26 µM; in assay [4], more than 26 µM; in assay [5] it was more than 26 µM; in assay [6] it was more than 26 µM.

For `COc1ccc(F)c(-c2ccc(C(=O)N(Cc3cccc(OCCCCCC(=O)O)c3)C(C)C)cc2)c1`, the EC50 in assay [1] is more than 15 µM; in assay [2], more than 15 µM; in assay [3], more than 26 µM; in assay [4], more than 26 µM; in assay [5], more than 26 µM; in assay [6] it was more than 26 µM.

Regarding `CC(C)N(Cc1cccc(OCCCCCC(=O)O)c1)C(=O)c1ccc(-c2cccc(F)c2)cc1`, the EC50 was more than 15 µM in assay [1]; more than 15 µM in assay [2]; more than 26 µM in assay [3]; more than 26 µM in assay [4]; more than 26 µM in assay [5]; more than 26 µM in assay [6].

As for `CC(C)N(Cc1cccc(OCCCCCC(=O)O)c1)C(=O)c1ccc(-c2cccc(C(F)(F)F)c2)cc1`, the EC50 in assay [1] is more than 15 µM; in assay [2] it was more than 15 µM; in assay [3] it was more than 26 µM; in assay [4] it was more than 26 µM; in assay [5] it was more than 26 µM; in assay [6], more than 26 µM.

Regarding `CC(C)N(Cc1cccc(OCCCCCC(=O)O)c1)C(=O)c1ccc(-c2ccc(Cl)c(Cl)c2)cc1`, the EC50 in assay [1] is 0.0175 µM; in assay [2], more than 15 µM; in assay [3] it was more than 26 µM; in assay [4] it was more than 26 µM; in assay [5] it was more than 26 µM; in assay [6], more than 26 µM.

Turning to `CC(C)N(Cc1cccc(OCCCCCC(=O)O)c1)C(=O)c1ccc(-c2cccc(Cl)c2)cc1`, the EC50 in assay [1] is more than 12.1 µM; in assay [2], more than 12.1 µM; in assay [3], more than 21.9 µM; in assay [4] it was more than 21.9 µM; in assay [5] it was more than 21.9 µM; in assay [6], more than 21.9 µM.

Regarding `CC(C)N(Cc1cccc(OCCCCCC(=O)O)c1)C(=O)c1ccc(-c2cccc(S(C)(=O)=O)c2)cc1`, the EC50 is more than 15 µM in assay [1]; more than 15 µM in assay [2]; more than 26 µM in assay [3]; more than 26 µM in assay [4]; more than 26 µM in assay [5]; more than 26 µM in assay [6].

Regarding `CC(C)N(Cc1cccc(OCCCCCC(=O)O)c1)C(=O)c1ccc(-c2cccc([N+](=O)[O-])c2)cc1`, the EC50 is more than 15 µM in assay [1]; less than 0.0004 µM in assay [2]; more than 26 µM in assay [3]; more than 26 µM in assay [4]; more than 26 µM in assay [5]; more than 26 µM in assay [6].

As to `CC(C)N(Cc1cccc(OCCCCCC(=O)O)c1)C(=O)c1ccc(-c2cccc(N(C)C)c2)cc1`, the EC50 is more than 15 µM in assay [1]; more than 15 µM in assay [2]; more than 26 µM in assay [3]; more than 26 µM in assay [4]; more than 26 µM in assay [5]; more than 26 µM in assay [6].

On to `CC(=O)Nc1cccc(-c2ccc(C(=O)N(Cc3cccc(OCCCCCC(=O)O)c3)C(C)C)cc2)c1`, for which the EC50 in assay [1] was more than 15 µM; in assay [2], more than 15 µM; in assay [3], more than 26 µM; in assay [4], more than 26 µM; in assay [5], more than 26 µM; in assay [6], more than 26 µM.

In the case of `CC(C)N(Cc1cccc(OCCCCCC(=O)O)c1)C(=O)c1ccc(-c2ccncc2)cc1`, the EC50 in assay [1] was 0.52 µM; in assay [2], 0.567 µM; in assay [3], more than 26 µM; in assay [4] it was more than 26 µM; in assay [5], more than 26 µM; in assay [6], more than 26 µM.

As to `CC(C)N(Cc1cccc(OCCCCCC(=O)O)c1)C(=O)c1ccc(-c2ccoc2)cc1`, the EC50 was more than 15 µM in assay [1]; more than 15 µM in assay [2]; more than 26 µM in assay [3]; more than 26 µM in assay [4]; more than 26 µM in assay [5]; more than 26 µM in assay [6].

In the case of `CC(C)N(Cc1cccc(OCCCCCC(=O)O)c1)C(=O)c1ccc(-c2ccco2)cc1`, the EC50 in assay [1] is more than 15 µM; in assay [2], more than 15 µM; in assay [3], more than 26 µM; in assay [4], more than 26 µM; in assay [5] it was more than 26 µM; in assay [6], more than 26 µM.

In the case of `CC(C)N(Cc1cccc(OCCCCCC(=O)O)c1)C(=O)c1ccc(-c2ccsc2)cc1`, the EC50 in assay [1] is more than 15 µM; in assay [2], more than 15 µM; in assay [3] it was more than 26 µM; in assay [4] it was more than 26 µM; in assay [5] it was more than 26 µM; in assay [6] it was more than 26 µM.

On to `Cc1nnc(-c2cccc(-c3ccc(C(=O)N(Cc4cccc(OCCCCCC(=O)O)c4)C(C)C)cc3)c2)o1`, for which the EC50 was more than 15 µM in assay [1]; more than 15 µM in assay [2]; more than 26 µM in assay [3]; more than 26 µM in assay [4]; more than 26 µM in assay [5]; more than 26 µM in assay [6].

`CC(C)N(Cc1cccc(OCCCCCC(=O)O)c1)C(=O)c1ccc(-c2ccc3[nH]ccc3c2)cc1`: the EC50 in assay [1] was more than 15 µM; in assay [2] it was more than 15 µM; in assay [3], more than 26 µM; in assay [4], more than 26 µM; in assay [5], more than 26 µM; in assay [6], more than 26 µM.

In the case of `CC(C)N(Cc1cccc(OCCCCCC(=O)O)c1)C(=O)c1ccc(-c2ccc3cc[nH]c3c2)cc1`, the EC50 was more than 1.5 µM in assay [1]; more than 15 µM in assay [2]; more than 26 µM in assay [3]; more than 26 µM in assay [4]; more than 26 µM in assay [5]; more than 26 µM in assay [6].

(Values after ChEMBL document CHEMBL2046380, “Synthesis and structure-activity relationship of disubstituted benzamides as a novel class of antimalarial agents” (Bioorg Med Chem Lett, 2012).)
